Details in all cases: Compound concentration 10 µM
Assay [1] addresses T1, Alpha-1B adrenergic receptor (Homo sapiens) (UniProt P35368).
T1 sequence (whole entry): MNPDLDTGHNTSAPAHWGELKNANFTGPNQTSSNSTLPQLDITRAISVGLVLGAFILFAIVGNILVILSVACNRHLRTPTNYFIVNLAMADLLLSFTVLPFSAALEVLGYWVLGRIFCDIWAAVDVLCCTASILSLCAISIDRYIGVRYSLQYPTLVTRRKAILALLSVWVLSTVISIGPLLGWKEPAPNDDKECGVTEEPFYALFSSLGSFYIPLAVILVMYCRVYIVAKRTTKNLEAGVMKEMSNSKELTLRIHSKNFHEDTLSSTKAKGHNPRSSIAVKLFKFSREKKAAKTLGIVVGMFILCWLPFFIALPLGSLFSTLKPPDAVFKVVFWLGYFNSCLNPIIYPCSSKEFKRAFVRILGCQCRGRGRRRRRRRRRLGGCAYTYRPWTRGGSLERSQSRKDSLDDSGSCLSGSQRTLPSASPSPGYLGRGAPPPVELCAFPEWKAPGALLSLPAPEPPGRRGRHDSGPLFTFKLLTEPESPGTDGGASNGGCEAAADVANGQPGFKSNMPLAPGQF
Description: PDSP Primary Binding target: ADRA1B - Compounds are tested at 10 uM concentration, plate are incubated at room temperature in the dark for 90 minutes. Reaction are stopped by vacuum filtration onto 0.3% polyethyleneimine soaked filter mats using Filtermate harvester. Scintilation cocktail is then melted onto microwave-dried filters on a hot plate and the radio activity is counted in Microbia counter.

For assay [2], the target named is T2, Alpha-2A adrenergic receptor (Homo sapiens) (UniProt P08913).
T2 sequence (whole entry): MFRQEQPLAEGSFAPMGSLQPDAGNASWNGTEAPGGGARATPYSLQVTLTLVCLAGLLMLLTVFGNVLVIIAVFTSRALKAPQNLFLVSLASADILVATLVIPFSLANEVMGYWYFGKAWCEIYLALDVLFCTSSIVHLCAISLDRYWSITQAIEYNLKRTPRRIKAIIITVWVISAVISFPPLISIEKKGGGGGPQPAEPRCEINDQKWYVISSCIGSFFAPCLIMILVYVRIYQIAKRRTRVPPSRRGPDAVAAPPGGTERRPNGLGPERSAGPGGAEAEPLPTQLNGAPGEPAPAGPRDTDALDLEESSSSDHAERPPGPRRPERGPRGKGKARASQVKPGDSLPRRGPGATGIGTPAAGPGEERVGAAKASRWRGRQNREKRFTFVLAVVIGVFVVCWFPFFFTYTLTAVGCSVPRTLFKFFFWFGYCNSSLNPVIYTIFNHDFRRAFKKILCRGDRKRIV
Description: PDSP Primary Binding target: ADRA2A - Compounds are tested at 10 uM concentration, plate are incubated at room temperature in the dark for 90 minutes. Reaction are stopped by vacuum filtration onto 0.3% polyethyleneimine soaked filter mats using Filtermate harvester. Scintilation cocktail is then melted onto microwave-dried filters on a hot plate and the radio activity is counted in Microbia counter.

Assay [3] addresses 5-hydroxytryptamine receptor 1D (Homo sapiens) (UniProt P28221).
Description: PDSP Primary Binding target: HTR1D - Compounds are tested at 10 uM concentration, plate are incubated at room temperature in the dark for 90 minutes. Reaction are stopped by vacuum filtration onto 0.3% polyethyleneimine soaked filter mats using Filtermate harvester. Scintilation cocktail is then melted onto microwave-dried filters on a hot plate and the radio activity is counted in Microbia counter.
The target in assay [4] is T3, 5-hydroxytryptamine receptor 2C (Homo sapiens) (UniProt P28335).
T3 sequence (whole entry): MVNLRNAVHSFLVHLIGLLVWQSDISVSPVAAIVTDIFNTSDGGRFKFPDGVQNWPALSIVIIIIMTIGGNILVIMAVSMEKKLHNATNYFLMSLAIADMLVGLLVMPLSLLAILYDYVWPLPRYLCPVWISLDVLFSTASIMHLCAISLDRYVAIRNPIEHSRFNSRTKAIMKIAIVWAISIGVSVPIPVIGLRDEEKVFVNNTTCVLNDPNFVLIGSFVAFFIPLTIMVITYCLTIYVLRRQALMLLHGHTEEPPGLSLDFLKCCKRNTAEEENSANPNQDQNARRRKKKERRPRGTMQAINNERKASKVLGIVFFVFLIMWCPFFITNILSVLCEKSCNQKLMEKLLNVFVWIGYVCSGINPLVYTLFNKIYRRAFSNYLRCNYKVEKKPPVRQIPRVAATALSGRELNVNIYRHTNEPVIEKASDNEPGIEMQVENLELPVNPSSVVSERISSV
Description: PDSP Primary Binding target: HTR2C - Compounds are tested at 10 uM concentration, plate are incubated at room temperature in the dark for 90 minutes. Reaction are stopped by vacuum filtration onto 0.3% polyethyleneimine soaked filter mats using Filtermate harvester. Scintilation cocktail is then melted onto microwave-dried filters on a hot plate and the radio activity is counted in Microbia counter.

Assay [5] deals with T4, Muscarinic acetylcholine receptor M1 (Homo sapiens) (UniProt P11229).
T4 sequence (whole entry): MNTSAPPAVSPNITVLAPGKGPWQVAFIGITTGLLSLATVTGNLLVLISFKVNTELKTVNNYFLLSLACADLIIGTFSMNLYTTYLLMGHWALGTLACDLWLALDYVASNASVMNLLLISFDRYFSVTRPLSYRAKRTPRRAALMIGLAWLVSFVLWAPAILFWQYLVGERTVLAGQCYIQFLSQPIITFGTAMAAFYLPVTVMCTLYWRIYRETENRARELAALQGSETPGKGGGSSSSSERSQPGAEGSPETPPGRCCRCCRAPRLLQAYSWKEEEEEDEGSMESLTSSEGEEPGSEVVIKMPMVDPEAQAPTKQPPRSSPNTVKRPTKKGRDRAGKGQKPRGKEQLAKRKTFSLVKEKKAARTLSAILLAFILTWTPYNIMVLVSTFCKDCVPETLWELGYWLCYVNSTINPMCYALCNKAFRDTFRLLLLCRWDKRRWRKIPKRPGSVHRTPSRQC
Description: PDSP Primary Binding target: CHRM1 - Compounds are tested at 10 uM concentration, plate are incubated at room temperature in the dark for 90 minutes. Reaction are stopped by vacuum filtration onto 0.3% polyethyleneimine soaked filter mats using Filtermate harvester. Scintilation cocktail is then melted onto microwave-dried filters on a hot plate and the radio activity is counted in Microbia counter.

The target in assay [6] is T5, Muscarinic acetylcholine receptor M5 (Homo sapiens) (UniProt P08912).
T5 sequence (whole entry): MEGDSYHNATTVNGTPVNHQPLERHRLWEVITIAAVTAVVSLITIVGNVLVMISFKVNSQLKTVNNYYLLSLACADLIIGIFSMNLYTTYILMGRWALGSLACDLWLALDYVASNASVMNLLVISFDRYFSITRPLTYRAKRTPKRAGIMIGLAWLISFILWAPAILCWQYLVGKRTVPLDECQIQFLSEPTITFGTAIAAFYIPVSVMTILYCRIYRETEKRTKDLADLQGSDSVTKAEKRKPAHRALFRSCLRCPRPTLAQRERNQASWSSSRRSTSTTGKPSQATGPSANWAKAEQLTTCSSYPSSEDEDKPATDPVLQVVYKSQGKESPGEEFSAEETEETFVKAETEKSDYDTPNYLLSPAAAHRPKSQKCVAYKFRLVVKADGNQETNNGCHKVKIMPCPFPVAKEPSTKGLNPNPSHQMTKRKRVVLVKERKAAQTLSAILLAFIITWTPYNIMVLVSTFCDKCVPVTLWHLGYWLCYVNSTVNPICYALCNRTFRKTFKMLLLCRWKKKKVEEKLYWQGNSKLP
Description: PDSP Primary Binding target: CHRM5 - Compounds are tested at 10 uM concentration, plate are incubated at room temperature in the dark for 90 minutes. Reaction are stopped by vacuum filtration onto 0.3% polyethyleneimine soaked filter mats using Filtermate harvester. Scintilation cocktail is then melted onto microwave-dried filters on a hot plate and the radio activity is counted in Microbia counter.

Assay [7] deals with Mu-type opioid receptor (Homo sapiens) (UniProt P35372).
Description: PDSP Primary Binding target: OPRM1 - Compounds are tested at 10 uM concentration, plate are incubated at room temperature in the dark for 90 minutes. Reaction are stopped by vacuum filtration onto 0.3% polyethyleneimine soaked filter mats using Filtermate harvester. Scintilation cocktail is then melted onto microwave-dried filters on a hot plate and the radio activity is counted in Microbia counter.

21 compounds from ChEMBL document CHEMBL5442219 can be followed below.

One may read the inhibition as the change of the read-out against control, counted positive when it falls.

Mu-type opioid receptor (Homo sapiens), sequence (P35372 whole entry): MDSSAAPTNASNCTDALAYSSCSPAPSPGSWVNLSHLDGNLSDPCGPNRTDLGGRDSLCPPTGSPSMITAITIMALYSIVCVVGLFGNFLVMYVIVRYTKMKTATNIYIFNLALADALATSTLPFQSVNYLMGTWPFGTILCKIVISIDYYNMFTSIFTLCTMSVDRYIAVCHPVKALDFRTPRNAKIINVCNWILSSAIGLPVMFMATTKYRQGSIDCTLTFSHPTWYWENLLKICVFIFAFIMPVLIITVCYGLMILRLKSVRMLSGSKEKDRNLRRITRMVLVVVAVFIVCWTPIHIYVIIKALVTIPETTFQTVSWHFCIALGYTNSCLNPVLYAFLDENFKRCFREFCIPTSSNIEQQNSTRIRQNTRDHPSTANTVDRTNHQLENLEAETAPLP
5-hydroxytryptamine receptor 1D (Homo sapiens), sequence (P28221 whole entry): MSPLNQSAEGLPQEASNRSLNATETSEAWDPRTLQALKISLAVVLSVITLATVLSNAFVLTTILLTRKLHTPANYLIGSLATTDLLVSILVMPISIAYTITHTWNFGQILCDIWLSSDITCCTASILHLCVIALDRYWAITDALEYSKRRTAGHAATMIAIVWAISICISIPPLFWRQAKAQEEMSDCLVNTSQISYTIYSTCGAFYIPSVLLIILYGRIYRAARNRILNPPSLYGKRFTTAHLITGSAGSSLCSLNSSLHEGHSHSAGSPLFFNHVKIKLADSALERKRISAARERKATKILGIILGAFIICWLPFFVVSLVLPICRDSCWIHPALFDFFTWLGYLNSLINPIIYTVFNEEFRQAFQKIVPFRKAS

For the compound `CC(C)(C(=O)O)c1ccc(C(O)CCCN2CCC(C(O)(c3ccccc3)c3ccccc3)CC2)cc1` (centres undefined), the inhibition was 2.41% in assay [1], -4.3% in assay [2], 39.8% in assay [3] and -8.36% in assay [4].
On to `NC(=O)[C@@H]1CCCN1C(=O)[C@H](Cc1c[nH]cn1)NC(=O)[C@@H]1CCC(=O)N1`, for which the inhibition in assay [1] was -3.89%; in assay [2], 12.4%; in assay [5], -3.59%; in assay [6], 5.07%; in assay [4], -0.43%; in assay [7], 45.1%.
Regarding `COc1ccc2[nH]cc(CCNC(C)=O)c2c1`, the inhibition was 1.22% in assay [1], 8.96% in assay [2] and 17.3% in assay [3].
Take `CCCCCCCCCCCCC/C=C/[C@@H](O)[C@@H](N)COP(=O)(O)O`: the inhibition in assay [1] is -1.45%; in assay [2] it was 4.33%; in assay [6], 6.31%; in assay [3] it was 63.5%; in assay [4], -2.94%; in assay [7], 30.4%.
In the case of `CN1CCC(=C2c3ccccc3CC(=O)c3sccc32)CC1`, the inhibition was 1.66% in assay [1]; 80.9% in assay [2]; 93.2% in assay [6]; 123% in assay [3]; 93.2% in assay [4]; 15.9% in assay [7].
For `NCCc1c[nH]c2ccc(C(N)=O)cc12`, the inhibition in assay [1] was 3.04%; in assay [2] it was 69.8%; in assay [6], 8.53%; in assay [3] it was 98.3%; in assay [4], 71.4%; in assay [7] it was 28.8%.
`COc1ccccc1N1CCN(CCCCNC(=O)c2ccc3ccccc3c2)CC1`: the inhibition in assay [1] is 96.8%; in assay [2] it was 100%; in assay [6], 23.2%; in assay [3] it was 103%; in assay [4] it was 97.9%; in assay [7] it was 79.8%.
As to `O=c1ccn([C@@H]2O[C@H](COP(=O)(O)OP(=O)(O)OP(=O)(O)O)[C@@H](O)[C@H]2O)c(=O)[nH]1`, the inhibition in assay [2] is 11.6%; in assay [6], 7.7%; in assay [4], 9.66%; in assay [7] it was 27.4%.
For `Cc1cc(C)c(N)c(C#Cc2cccc(F)c2)n1`, the inhibition in assay [1] was -8.91%; in assay [2] it was 4.3%; in assay [3] it was 18.3%; in assay [4] it was 2.41%; in assay [7], 2.84%.
With `COc1ccc2cc(S(=O)(=O)N[C@H](CC(=O)N[C@H](Cc3ccc(CN4[C@H](C)CCC[C@@H]4C)cc3)C(=O)N(C)C(C)C)c3ccc4c(c3)OCO4)ccc2c1`, the inhibition in assay [1] is 2.74%; in assay [2], 39.4%; in assay [5], 44.5%; in assay [6] it was 52.8%; in assay [4], 19.7%; in assay [7], 40%.
Turning to `CN1C[C@H](C(=O)N[C@]2(C)O[C@@]3(O)[C@@H]4CCCN4C(=O)[C@H](Cc4ccccc4)N3C2=O)C[C@@H]2c3cccc4[nH]cc(c34)C[C@H]21`, the inhibition in assay [1] was 93.8%; in assay [2], 99.6%; in assay [6] it was 7.31%; in assay [3] it was 98.8%; in assay [4], 103%; in assay [7], 58.1%.
In the case of `CC(C)NCC(O)COc1cccc2[nH]ccc12` (centres undefined), the inhibition in assay [1] is 6.47%; in assay [2], 29%; in assay [6] it was 10.5%; in assay [3], 50.9%; in assay [4] it was 7.77%; in assay [7], 16.8%.
In the case of `CCCn1c(=O)c2nc(C34CC5CC(CC3C5)C4)[nH]c2n(CCC)c1=O`, the inhibition is 10% in assay [2], 23.4% in assay [3], -0.12% in assay [4] and 9.1% in assay [7].
With `COC(=O)[C@H]1[C@H]2C[C@H]3c4[nH]c5ccccc5c4CCN3C[C@H]2CC[C@@H]1O`, the inhibition is 58.4% in assay [1]; 98.3% in assay [2]; 4.29% in assay [6]; 2.54% in assay [4]; 28.7% in assay [7].
Turning to `CCc1nn2c(C)cc(C)nc2c1Cc1ccc(-c2nnc(C3CCNCC3)o2)cc1`, the inhibition is -7.24% in assay [1]; 42.9% in assay [2]; 14.8% in assay [3]; 10.1% in assay [4]; 50.7% in assay [7].
On the same counts, the results for `Brc1c(NC2=NCCN2)ccc2nccnc12` are 55.7%, 103%, 49.5%, 6.61% and 0.59%.
The corresponding values for `Cc1ccccc1N1CCN(S(=O)(=O)C[C@]23CC[C@H](C[C@@H]2NC(=O)[C@@H](N)CCS(C)(=O)=O)C3(C)C)CC1` are -3.68%, 27.8%, -2.54%, -4.87% and 15.9%.
Turning to `CN[C@@H]1CCc2[nH]c3ccc(C(N)=O)cc3c2C1`, the inhibition is 93.5% in assay [1]; 31% in assay [2]; -1.58% in assay [6]; 72.3% in assay [3]; 18.2% in assay [4]; 54.7% in assay [7].
Consider `Clc1cccc(Cl)c1NC1=NCCN1`, for which the inhibition was 65.3% in assay [1]; 103% in assay [2]; 0.71% in assay [6]; 29.5% in assay [3]; 55.7% in assay [4]; 3.84% in assay [7].
`COc1cc2nc(N3CCN(C(=O)c4ccco4)CC3)nc(N)c2cc1OC`: the inhibition in assay [1] was 0%; in assay [2], 42.3%; in assay [6], 3.19%; in assay [4], 3.9%; in assay [7] it was 50%.
Consider `CNC[C@H](O)c1ccc(O)c(O)c1`, for which the inhibition in assay [1] was 2.3%; in assay [2], 49.1%; in assay [3], 15.8%; in assay [7] it was -2.25%.
